Test results from the NIST ThermoML archive (doi:10.1016/j.jct.2013.01.013).
± gives the expanded uncertainty stated by the source.

Assay: xn = mol fraction of the nth substance listed
Settings: 101 kPa, Liquid; for viscosity: Capillary tube (Ostwald / Ubbelohde) method; for speed of sound: Linear variable-path acoustic interferometer; for mass density: Pycnometric method

C=C(C)C(=O)OC [methyl methacrylate] + CC(=O)N(C)C
Settings	mass density, 288.15 K [kg/m3]	mass density, 293.15 K [kg/m3]	speed of sound, 288.15 K [m/s]	speed of sound, 293.15 K [m/s]	viscosity, 288.15 K [mPa·s]	viscosity, 293.15 K [mPa·s]
x1 = 0.0714	946.01 ± 0.27	941.45 ± 0.26	1484.2 ± 1.6	1467.3 ± 1.6	1.103 ± 0.0091	0.9972 ± 0.0083
x1 = 0.144	946.49 ± 0.27	941.87 ± 0.26	1468.6 ± 1.6	1452.1 ± 1.6	1.057 ± 0.0087	0.957 ± 0.008
x1 = 0.2125	946.92 ± 0.27	942.23 ± 0.26	1452.9 ± 1.6	1436.6 ± 1.6	1.016 ± 0.0084	0.9207 ± 0.0077
x1 = 0.2823	947.31 ± 0.27	–	1435.8 ± 1.6	1419.2 ± 1.6	0.9751 ± 0.0081	0.8852 ± 0.0075
x1 = 0.3568	947.69 ± 0.27	–	1416.2 ± 1.6	1399.5 ± 1.5	0.9339 ± 0.0078	0.8487 ± 0.0072
x1 = 0.4318	948.02 ± 0.27	–	1394.9 ± 1.5	1378.3 ± 1.5	0.8939 ± 0.0075	0.8137 ± 0.0069
x1 = 0.5046	948.31 ± 0.26	–	1372.8 ± 1.5	1356.3 ± 1.5	0.856 ± 0.0072	0.7808 ± 0.0067
x1 = 0.5769	948.54 ± 0.26	–	1349.9 ± 1.5	1333.1 ± 1.5	0.8196 ± 0.007	0.7494 ± 0.0064
x1 = 0.6512	948.73 ± 0.26	–	1325.5 ± 1.5	1308.9 ± 1.5	0.7835 ± 0.0067	0.7183 ± 0.0062
x1 = 0.7205	948.88 ± 0.26	–	1302.7 ± 1.5	1286.3 ± 1.5	0.7513 ± 0.0064	0.691 ± 0.006
x1 = 0.7845	948.97 ± 0.26	–	1282.2 ± 1.4	1266 ± 1.4	0.7228 ± 0.0062	0.6666 ± 0.0058
x1 = 0.8558	949.03 ± 0.26	–	1259.7 ± 1.4	1243.5 ± 1.4	0.6927 ± 0.006	0.6409 ± 0.0056
x1 = 0.9281	949.07 ± 0.26	–	1237.5 ± 1.4	1221.3 ± 1.4	0.6628 ± 0.0058	0.6153 ± 0.0054
x1 = 1	949.1 ± 0.26	–	1216.8 ± 1.4	1200.5 ± 1.4	0.634 ± 0.0056	0.5903 ± 0.0053
